Measurements from patent publication EP0420798B1, “Antimicrobial compositions” (Ciba Vision AG, Hettlingen, priority 1989, dated 1991).

Assays:
[1] = 4-week ocular local tolerance study in rabbits; assay type: in vivo, pigmentierte Himalayakaninchen; conditions: 0,01 % solution, 50 µl ten times daily at 45 min intervals into conjunctival sac of right eye for 4 weeks; histopathology at end; animals with conjunctival lesions and acanthosis/hyperkeratosis at margin of lower right eyelid
Source text: Die bessere Augenverträglichkeit der Verbindungen der Formel I im Vergleich zu Benzalkoniumchlorid wird z.B. auch aus den Ergebnissen der im folgenden beschriebenen 4 Wochen dauernden okularen, lokalen Verträglichkeitsstudie beim Kaninchen deutlich: Verglichen wurden jeweils 0,01 %-ige Lösungen von N-Benzyl-N-(gemischtes C₈-C₁₈-Alkyl)-N,N-bis-(2-hydroxyethyl)-ammoniumchlorid und Benzalkoniumchlorid. Als Versuchstiere dienten pigmentierte Himalayakaninchen. Diesen wurden 4 Wochen lang zehnmal täglich (in 45 Minuten-Intervallen) jeweils 50 µl der entsprechenden Lösung in den Konjunktivalsack des rechten Auges verabreicht. Zur Kontrolle wurde in das linke Auge jeweils eine Vergleichslösung, die kein Konservierungsmittel enthielt, eingetropft. Die Tiere wurden am ersten und am fünften Behandlungstag ophthalmologisch untersucht. […] Dagegen wurden bei 4 von 6 mit Benzalkoniumchloridlösung behandelten Tieren Läsionen in der Konjunktiva und eine Akanthose und Hyperkeratose am Rand des unteren rechten Augenlids beobachtet. Die Benzalkoniumchloridlösung verursachte demnach Aenderungen am konjunktivalen Epithel, welche bei der erfindungsgemässen Lösung nicht auftraten. Damit ist überzeugend nachgewiesen, dass die Verbindungen der Formel I eine im Vergleich zu Benzalkoniumchlorid überraschend verbesserte Langzeitverträglichkeit im Auge besitzen.

E. coli = test: Preservative challenge test; assay type: cell-based; set-up: key to Reduktion des Wachstums: k. W.: k.W.: kein Wachstum; conditions: 0,1 mg/ml, pH 6, inoculum 1,5•10^6/ml
Source text: (§1) Die konservierende Wirkung der Verbindungen der Formel I wird z.B. aus den Ergebnissen des folgenden Konservierungsmittelbelastungstests deutlich: […]

C. albicans = test: Preservative challenge test; assay type: cell-based; set-up: key to Reduktion des Wachstums: k. W.: k.W.: kein Wachstum; conditions: 0,1 mg/ml, pH 6, inoculum 9,9•10^5/ml
Source text: as §1

[2] = 5-day ocular tolerance test in animals; assay type: in vivo, Kaninchen
Source text: Die überraschenderweise verbesserte Augenverträglichkeit der Verbindungen der Formel I im Vergleich zu Benzalkoniumchlorid wird z.B. aus den Ergebnissen der im folgenden beschriebenen 5-Tage-Verträglichkeitsprüfung beim Tier deutlich: Verglichen wurden jeweils 0,01 %-ige Lösungen von Benzoxoniumchlorid und Benzalkoniumchlorid. Diese Lösungen wurden 5 Tage lang fünfmal (in 90 Minuten-Invervallen) in den Konjunktivalsack von Kaninchen eingetropft. Am Ende des Versuchs wurden die behandelten Augen auf Klinische Befunde, wie z.B. Rötungen der Konjunktiva, Korneatrübungen, Sekretion und Bindehautschwellungen, untersucht. Dabei ergaben sich die folgenden Resultate: Brenzoxoniumchlorid (≙ Verbindung der Formel I), 0,01 % 5 Instillationen/Tier/Tag im Abstand von jeweils 90 min keine Befunde Benzalkoniumchlorid (≙ Vergleichsverbindung), 0,01 % 5 Instillationen/Tier/Tag im Abstand von jeweils 90 min 4 Befunde

Ps. aeruginosa = test: Preservative challenge test; assay type: cell-based; set-up: key: k. W.: k.W.: kein Wachstum; conditions: 0,1 mg/ml, pH 6, inoculum 1,1•10^6/ml
Source text: as §1

St. aureus = test: Preservative challenge test; assay type: cell-based; set-up: key: k. W.: k.W.: kein Wachstum; conditions: 0,1 mg/ml, pH 6, inoculum 1,4•10^6/ml
Source text: as §1

Compound	okulare Läsionen [1]	Reduktion des Wachstums (E. coli; contact time 6 h)	Reduktion des Wachstums (E. coli; contact time 24 h)	killing at 100 µg/mL (E. coli; Escherichia coli, 10 min, contact time 10 min, read-out: Reduktion des Wachstums)	Reduktion des Wachstums (C. albicans; contact time 6 h)	Reduktion des Wachstums (C. albicans; contact time 24 h)	killing at 100 µg/mL (C. albicans; Candida albicans, 10 min, contact time 10 min, read-out: Reduktion des Wachstums)	Klinische Befunde ([2]; 0,01 % solution, 5 instillations/animal/day at 90 min intervals into the conjunctival sac for 5 days, eyes examined at end of test (conjunctival redness, corneal opacity, secretion, conjunctival swelling))	Reduktion des Wachstums (Ps. aeruginosa; contact time 10 min)	Reduktion des Wachstums (Ps. aeruginosa; contact time 6 h)	Reduktion des Wachstums (Ps. aeruginosa; contact time 24 h)	Reduktion des Wachstums (St. aureus; contact time 10 min)	Reduktion des Wachstums (St. aureus; contact time 6 h)	Reduktion des Wachstums (St. aureus; contact time 24 h)	Klinische Befunde ([2]; in vivo)
N-Benzyl-N-(gemischtes C₈-C₁₈-Alkyl)-N,N-bis-(2-hydroxyethyl)-ammoniumchlorid	keine okularen Läsionen														
CCCCCCCCCCCC[N+](CCO)(CCO)Cc1ccccc1.[Cl-] [Benzoxoniumchlorid, N-Benzyl-N-(n-dodecyl)-N,N-bis-(2-hydroxyethyl)-ammoniumchlorid]		k. W.	k. W.	100%	k. W.	k. W.	100%	keine Befunde	k. W.	k. W.	k. W.	k. W.	k. W.	k. W.	
N-Benzyl-N-(C₈-C₁₈-alkyl)-N,N-dimethylammoniumchlorid [Benzalkoniumchlorid, reference compound]	4 von 6														4 Befunde
